Laboratory results: ChEMBL document CHEMBL1145877, “5H-8,9-dimethoxy-5-(2-N,N-dimethylaminoethyl)dibenzo[c,h][1,6]naphthyridin-6-ones and related compounds as TOP1-targeting agents: influence of structure on the ternary cleavable complex formation” (Bioorg Med Chem Lett, 2003)

Molecular target: T1, DNA topoisomerase 1 (Homo sapiens) (UniProt P11387)
T1 sequence (whole entry): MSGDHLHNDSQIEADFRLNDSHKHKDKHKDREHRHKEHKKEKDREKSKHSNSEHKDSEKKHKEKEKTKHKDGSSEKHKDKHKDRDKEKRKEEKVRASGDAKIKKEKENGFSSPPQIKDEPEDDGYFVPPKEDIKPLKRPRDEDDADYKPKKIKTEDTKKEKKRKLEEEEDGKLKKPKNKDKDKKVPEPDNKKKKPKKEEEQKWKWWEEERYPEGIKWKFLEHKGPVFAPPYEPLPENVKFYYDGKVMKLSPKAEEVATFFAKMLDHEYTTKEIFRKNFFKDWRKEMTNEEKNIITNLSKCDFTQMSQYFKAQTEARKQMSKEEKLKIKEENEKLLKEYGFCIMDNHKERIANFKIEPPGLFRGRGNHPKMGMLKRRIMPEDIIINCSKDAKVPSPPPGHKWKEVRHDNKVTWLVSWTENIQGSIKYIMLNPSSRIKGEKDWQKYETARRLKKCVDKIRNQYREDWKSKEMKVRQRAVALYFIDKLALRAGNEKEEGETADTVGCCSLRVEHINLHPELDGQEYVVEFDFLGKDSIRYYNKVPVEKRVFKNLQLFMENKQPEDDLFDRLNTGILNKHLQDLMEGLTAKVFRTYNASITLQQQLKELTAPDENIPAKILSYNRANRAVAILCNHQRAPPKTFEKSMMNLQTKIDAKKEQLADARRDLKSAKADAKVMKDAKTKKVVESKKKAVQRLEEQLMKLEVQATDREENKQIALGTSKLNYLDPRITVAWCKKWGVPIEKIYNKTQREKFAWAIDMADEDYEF
Experiment: Concentration relative to topotecan for topoisomerase DNA topoisomerase I cleavage

| SMILES | REC |
| --- | --- |
| COc1cc2c(=O)n(CCN(C)C)c3c4ccc([N+](=O)[O-])cc4ncc3c2cc1OC | 6 |
| COc1cc2c(=O)n(CCN(C)C)c3c(cnc4cccc([N+](=O)[O-])c43)c2cc1OC | 300 |
| COc1cc2c(=O)n(CCN(C)C)c3c4cccc([N+](=O)[O-])c4ncc3c2cc1OC | 9 |
| COc1cc2c(=O)n(CCN(C)C)c3c4cc([N+](=O)[O-])ccc4ncc3c2cc1OC | 2 |

Next, values leading:

| REC | SMILES |
| --- | --- |
| 0.8 | COc1cc2c(cc1OC)-c1cnc3cc4c(cc3c1N(CCN(C)C)C2)OCO4 |
| 0.3 | COc1cc2c(=O)n(CCN(C)C)c3c4cc5c(cc4nnc3c2cc1OC)OCO5 |
| 1 | COc1cc2c(=O)n(CCCN(C)C)c3c4cc5c(cc4ncc3c2cc1OC)OCO5 |
